# From PubChem BioAssay (NCI)
#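 These data come from cells grown in 96-well plates and exposed to compound for 48 hours at five concentrations. Definition used: TGI = concentration required for complete inhibition of growth.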
# Columns and labels:
# Experiment in all cases: NCI tumour cell line growth inhibition, 48 h
# EKVX NSCLC = tested on: EKVX NSCLC
# MDA-N = tested on: MDA-N
# MOLT-4 leukemia = tested on: MOLT-4 leukemia
# HS 578T breast = tested on: HS 578T breast
# UACC-62 melanoma = tested on: UACC-62 melanoma
# CCRF-CEM leukemia = tested on: CCRF-CEM leukemia
# M14 melanoma = tested on: M14 melanoma
# SR leukemia = tested on: SR leukemia
# NCI-H522 lung = tested on: NCI-H522 lung
# OVCAR-3 ovarian = tested on: OVCAR-3 ovarian
# MDA-MB-435 = tested on: MDA-MB-435
# U251 CNS = tested on: U251 CNS
# UACC-257 melanoma = tested on: UACC-257 melanoma
# UO-31 renal = tested on: UO-31 renal
# 786-0 renal = tested on: 786-0 renal
# SNB-19 CNS = tested on: SNB-19 CNS
# NCI-H23 lung = tested on: NCI-H23 lung
# T-47D breast = tested on: T-47D breast
smiles,measurement,setting,value
COC(=O)[C@@H]1C=C[C@H](OC2OC(COC(C)=O)C(OC(C)=O)C(OC(C)=O)C2OC(C)=O)n2c(=O)n(-c3ccccc3)c(=O)n21 (some centres undefined),TGI,EKVX NSCLC,11.2 µM
same,TGI,MDA-N,7.41 µM
same,TGI,MOLT-4 leukemia,5.19 µM
same,TGI,HS 578T breast,45.8 µM
same,TGI,UACC-62 melanoma,8.89 µM
same,TGI,CCRF-CEM leukemia,4.42 µM
same,TGI,M14 melanoma,5.77 µM
same,TGI,SR leukemia,> 24.9 µM
same,TGI,NCI-H522 lung,1.07 µM
same,TGI,OVCAR-3 ovarian,3.24 µM
same,TGI,MDA-MB-435,11.9 µM
same,TGI,U251 CNS,8.33 µM
same,TGI,UACC-257 melanoma,5.07 µM
same,TGI,UO-31 renal,5.25 µM
same,TGI,786-0 renal,2.83 µM
same,TGI,SNB-19 CNS,25.8 µM
same,TGI,NCI-H23 lung,14 µM
same,TGI,T-47D breast,8.75 µM
Nc1ccccc1CCN1CCN(CCCc2ccccc2)CC1,TGI,EKVX NSCLC,> 100 µM
same,TGI,MDA-N,> 100 µM
same,TGI,MOLT-4 leukemia,> 100 µM
same,TGI,HS 578T breast,> 100 µM
same,TGI,UACC-62 melanoma,> 100 µM
same,TGI,CCRF-CEM leukemia,> 100 µM
same,TGI,M14 melanoma,35.4 µM
same,TGI,SR leukemia,> 100 µM
same,TGI,NCI-H522 lung,> 100 µM
same,TGI,OVCAR-3 ovarian,> 100 µM
same,TGI,MDA-MB-435,> 100 µM
same,TGI,U251 CNS,> 100 µM
same,TGI,UACC-257 melanoma,> 100 µM
same,TGI,UO-31 renal,> 100 µM
same,TGI,786-0 renal,> 100 µM
same,TGI,SNB-19 CNS,> 100 µM
same,TGI,NCI-H23 lung,> 100 µM
same,TGI,T-47D breast,53.3 µM
COC(=O)C1=C(OC(=O)/C(=C/c2ccccc2)c2ccc(Cl)cc2Cl)C(C(=O)OC)[C@@]2(O)[C@@H](C(=O)OC)[C@H](C)C[C@@H]1[C@@H]2C(=O)OC (some centres undefined),TGI,EKVX NSCLC,> 100 µM
same,TGI,MDA-N,> 100 µM
same,TGI,MOLT-4 leukemia,> 100 µM
same,TGI,HS 578T breast,> 100 µM
same,TGI,UACC-62 melanoma,> 100 µM
same,TGI,CCRF-CEM leukemia,> 100 µM
same,TGI,M14 melanoma,> 100 µM
same,TGI,SR leukemia,> 100 µM
same,TGI,NCI-H522 lung,> 100 µM
same,TGI,OVCAR-3 ovarian,> 100 µM
same,TGI,MDA-MB-435,> 100 µM
same,TGI,U251 CNS,> 100 µM
same,TGI,UACC-257 melanoma,> 100 µM
same,TGI,UO-31 renal,> 100 µM
same,TGI,786-0 renal,> 100 µM
same,TGI,SNB-19 CNS,> 100 µM
same,TGI,NCI-H23 lung,> 100 µM
same,TGI,T-47D breast,> 100 µM
COc1ccc(CC2COc3cc(OC)cc(OC)c3C2=O)cc1 (centres undefined),TGI,EKVX NSCLC,77.8 µM
same,TGI,MDA-N,> 100 µM
same,TGI,MOLT-4 leukemia,> 100 µM
same,TGI,HS 578T breast,87.3 µM
same,TGI,UACC-62 melanoma,> 100 µM
same,TGI,M14 melanoma,78.8 µM
same,TGI,SR leukemia,43.2 µM
same,TGI,NCI-H522 lung,87 µM
same,TGI,OVCAR-3 ovarian,46.5 µM
same,TGI,MDA-MB-435,18.1 µM
same,TGI,U251 CNS,> 100 µM
same,TGI,UACC-257 melanoma,> 100 µM
same,TGI,UO-31 renal,> 100 µM
same,TGI,786-0 renal,51.7 µM
same,TGI,SNB-19 CNS,> 100 µM
same,TGI,NCI-H23 lung,> 100 µM
same,TGI,T-47D breast,56 µM
CC(C)CCNC(=O)c1ccc(CNC(=O)/C=C/c2cccc(Oc3ccccc3)c2)cc1,TGI,EKVX NSCLC,> 100 µM
same,TGI,MDA-N,38.3 µM
same,TGI,MOLT-4 leukemia,> 100 µM
same,TGI,HS 578T breast,> 100 µM
same,TGI,UACC-62 melanoma,71.1 µM
same,TGI,M14 melanoma,> 100 µM
same,TGI,SR leukemia,> 100 µM
same,TGI,NCI-H522 lung,> 100 µM
same,TGI,OVCAR-3 ovarian,93 µM
same,TGI,MDA-MB-435,41.6 µM
same,TGI,U251 CNS,> 100 µM
same,TGI,UACC-257 melanoma,> 100 µM
same,TGI,UO-31 renal,> 100 µM
same,TGI,786-0 renal,69.3 µM
same,TGI,SNB-19 CNS,> 100 µM
same,TGI,NCI-H23 lung,> 100 µM
same,TGI,T-47D breast,> 100 µM
O=C(NC1=C(Cl)C(=O)c2ccccc2C1=O)c1ccccc1,TGI,EKVX NSCLC,> 100 µM
same,TGI,MDA-N,28.1 µM
same,TGI,MOLT-4 leukemia,58.8 µM
same,TGI,HS 578T breast,> 100 µM
same,TGI,UACC-62 melanoma,90.7 µM
same,TGI,CCRF-CEM leukemia,> 100 µM
same,TGI,M14 melanoma,> 100 µM
same,TGI,SR leukemia,> 100 µM
same,TGI,NCI-H522 lung,52.3 µM
same,TGI,OVCAR-3 ovarian,42.7 µM
same,TGI,MDA-MB-435,47.6 µM
same,TGI,U251 CNS,81.1 µM
same,TGI,786-0 renal,> 100 µM
same,TGI,SNB-19 CNS,> 100 µM
same,TGI,NCI-H23 lung,71.7 µM
same,TGI,T-47D breast,47.4 µM
